# Data published in patent US20080003305A1, “PROCESS AND COMPOSITIONS FOR THE DISINFECTION OF WATERS” (BROMINE COMPOUNDS LIMITED, priority 1991, published 2008).
# What was measured:
# [1] = tested on: biofilm, slime and algae growth; test: Field experiment, cooling tower 2 (corn processing plant); details: BCDMH 1.50-2.26 kg/day daily
# Experimental: • Corn processing plant. • Contained volume: 20 m^3 • Circulation rate: 300 m^3/h • pH: 7.5-8.0 • Water temperature: 36° C.-57° C.
# This tower was treated with BCDMH (1.50-2.26 kg/day) daily. Due to a very high organic load in the water, growth of biofilm was very fast.
# [2] = tested on: biofouling and growth of algae; test: Field experiment, cooling tower 1
# Experimental: • Cooling tower; contained volume 1000 m^3 • Circulation rate 500 m^3/h • Scale and corrosion inhibitor: CWC: 100 mg/l
# The tower was controlled on low level (0.6-1.2 kg/day) of BCDMH feed. Use of BCDMH was effective as long as make-ups were softened in ion-exchangers.
# The system was shock-fed with NH4Br+NaOCl. Overall dosage: 75 liters NaOCl (10%) 12.6 kg NH4Br. The mixture was fed during 1.5 hours.
# A slug dose of 25 liters NaOCl (10% as Cl2) (+4.2 kg NH4Br) was then fed to the cooling tower once in two to three days. […] A measurable residue of 0.6-0.4 ppm (as total chlorine) was measured in the water 24 and 48 hours after feeding the mixture.
# Pseudomonas sp. [3] = test: Efficacy of biocides in the presence of anti-scale and corrosion inhibiting treatment (CWC); type: cell-based; details: dose 4 mg/l; pH 9.0; contact time 6 hours
# Source text: Efficacy of Biocides in the Presence of Anti-Scale and Corrosion Inhibiting Treatment (CWC)
# Stock concentration: 0.5% as Cl2
# Efficacy against pseudomonas sp.
# anaer. MOs = test: Efficacy in domestic waste containing a high concentration of amines: anaerobic MOs; type: cell-based; details: 60 ppm; contact time 10 minutes; N as NH3 50mg/l; pH 6.10
# Experimental: (§1) Efficacy of a Series of Biocides in Domestic Waste Containing a High Concentration of Amines
# (§2) Incubation temperature: 27° C.
# (§3) Stock concentration: 0.2%
# [4] = tested on: fouling of size press filters; test: Field experiment, starch sizing mixture (paper mill); details: NaOCl (10% as Cl2) fed every 8 hours, 30 liters per portion
# Experimental: • Paper mill, starch sizing • Contained volume: 20 m^3 • Flow rate: 8.33 m^3/h. (6% starch in H2O), • pH about 8.0 • Temperature: 50° C.-70° C.
# Sizing mixture is recirculated in a size press through a filter (80 microns). Circulation rate: 6 m^3/h. The sizing mixture had been previously treated with NaOCl (10% as Cl2), which was fed every 8 hours (30 liters per portion).
# Use of NaOCl was replaced by the use of a mixture of NH4Br+NaOCl (stock concentration 0.5% as Cl2).
# aerob. MOs = test: Efficacy in domestic waste containing a high concentration of amines: aerobic MOs; type: cell-based; details: 60 ppm; contact time 10 minutes; N as NH3 50mg/l; pH 6.10
# Experimental: as §1, §2, §3
# [5] = Residue as Cl2 in domestic waste; type: physicochemical; details: 20 ppm as Cl2, contact time 10 minutes
# Experimental: (§4) Efficacy of Oxidizing Biocides in Domestic Waste
# (§5) Non-treated domestic waste roughly filtered; contact time: 10 minutes.
# (§6) Stock concentration: 0.5% as Cl2.
# [6] = Residue as Cl2 in water from a citrus juice evaporator; type: physicochemical; details: 30 ppm as Cl2
# Experimental: (§7) Kinetics of Kill of Various Mixtures of Ammonium Salts Mixed with NaOCl in Water from a Citrus Juice Evaporator
# (§8) Demand: Higher than 30 ppm out of 30 ppm of Cl2 during 10 minutes.
# (§9) Stock concentration of NH4X+NaOCl: 0.1% as Cl2
# total count [7] = test: Efficacy of oxidizing biocides in domestic waste: total count; type: cell-based; details: 20 ppm as Cl2; contact time 10 minutes
# Experimental: as §4, §5, §6
# [8] = tested on: MOs in starch sizing mixture; test: Efficacy of oxidizing and non-oxidizing biocides in a starch sizing mixture (paper industry); type: cell-based; details: 30 ppm active ingredient, 60° C.
# Experimental: Efficacy of Oxidizing and Non-Oxidizing Biocides is a Starch Sizing Mixture (Paper Industry)
# Efficacy was measured at 60° C.
# NH4Br+NaOCl: stock concentration 0.1%.
# Dosage: 30 ppm active ingredient.
# Incubation temperature 60° C.
# total aerobic MOs = test: Kinetics of kill in water from a citrus juice evaporator: total aerobic; type: cell-based; details: 30 ppm as Cl2
# Experimental: as §7, §8, §9
# [9] = tested on: total aerobic viable counts; test: Efficacy of oxidizing biocides in water taken from a paper mill (thick stock of pulp slurry); type: cell-based; details: 15 mg/l as Cl2
# Experimental: Efficacy of Oxidizing Biocides in Water Taken from a Paper Mill (Thick Stock of Pulp Slurry)
# Microorganisms were incubated at 37° C. (total aerobic viable counts).
# Concentration of stock solution: 0.1% as Cl2.
# bacillus mycoides = test: Efficacy of ammonium bromide at various pHs; type: cell-based; details: 2 ppm as Cl2
# Experimental: Efficacy of Ammonium Bromide at Various pHs
# Examined MO: bacillus mycoides
# NH4Br+NaOCl: molar ratio 1:1; stock concentration: 0.5%;
# NH4Br+NaOCl was either pre-mixed or added in situ to the buffer.
# Demand: 1.8 ppm out of 2 ppm of Cl2 within 60 minutes.
# Pseudomonas sp. [10] = test: Efficacy in buffer at pH-7.5 against Pseudomonas sp.; type: cell-based; details: buffer pH 7.5, 1 ppm as Cl2
# Experimental: Efficacy in Buffer at pH-7.5 against Pseudomonas sp.
# Chlorine demand: 0.1 ppm out of 1 ppm within 20 minutes
# NH4Br+NaOCl: stock concentration: 1000 ppm as Cl2
# Preparation of stock solution: NH4Br was dissolved in de-ionized water (2761 ppm). NaOCl (2000 ppm as Cl2) was quickly added dropwise to the ammonium bromide solution while stirring the mixture. The stock solution was used immediately.
# total anaerobic MOs = test: Kinetics of kill in water from a citrus juice evaporator: total anaerobic; type: cell-based; details: 30 ppm as Cl2
# Experimental: as §7, §8, §9
# [11] = Residue as Cl2 in domestic waste containing a high concentration of amines; type: physicochemical; details: 60 ppm
# Experimental: as §1, §2, §3
# total count [12] = test: Dependence of efficacy of NH4Br+NaOCl on the concentration of stock solution, industrial waste water; type: cell-based; details: no pre-mixed stock, 4 ppm as Cl2
# Experimental: Dependence of Efficacy of Mixtures of NH4Br+NaOCl on the Concentrations of Stock Solution
# Work was carried out in industrial waste water.
# Stock concentrates were prepared in buffer at pH 7.00.
# Biocidal dose: 4 ppm as Cl2.
# Fecal coli = test: Efficacy of oxidizing biocides in domestic waste: fecal coli; type: cell-based; details: 20 ppm as Cl2; contact time 10 minutes
# Experimental: as §4, §5, §6
# total count [13] = test: Pre-mixing versus in situ addition of ammonium salts and NaOCl, water from a corn-processing plant; type: cell-based; details: 12 ppm, stock formed in water
# Experimental: Pre-Mixing Versus in Situ Addition of Ammonium Salts and NaOCl
# Water from a corn-processing plant; high demand for Cl2,
# NH4Cl+NaOCl: stock concentration: 1%
# NH4Br+NaOCl: stock concentration: 0.5%
# Stock solutions were formed at pH 14.0; 7.0, 4.0 and in water.
# For in situ addition: both NH4X and NaOCl were dissolved at the appropriate pH.
smiles,measurement,setting,value
CC1(C)C(=O)N(Cl)C(=O)N1Br [BCDMH],control of daily grown films,[1],effective in controlling the daily grown films
same,efficacy against heavy slimes covering the cooling tower,[1],not effective against heavy slimes
same,prevention of biofouling and growth of algae,"[2]; BCDMH 4-6 kg/day, CWC (100 mg/l of phosphonate)",did not suffice to prevent biofouling and growth of algae
same,control of the tower,"[2]; BCDMH feed 0.6-1.2 kg/day, make-ups softened in ion-exchangers",effective
same,Survivors in CWC (100 mg/l),Pseudomonas sp. [3],3 × 10^5
same,Survivors in buffer,Pseudomonas sp. [3],0
"[Na+].[O-]Cl [NaOCl, sodium hypochlorite]",Surviving MOs after 10 minutes anaer.,anaer. MOs,3 × 10^3 cfu/ml
same,frequency of filter washing,[4],filters had to be washed once every two hours
same,Surviving MOs after 10 minutes aerob.,aerob. MOs,9 × 10^2 cfu/ml
same,residue as Cl2 free,[5]; free,0 (0) ppm
same,residue as Cl2 (total),[5]; total,0 (0) ppm
same,residue as Cl2 free after time (minutes): 10,"[6]; free, 10 minutes",0 (0)
same,residue as Cl2 free after time (minutes): 20,"[6]; free, 20 minutes",0 (0)
same,residue as Cl2 free after time (minutes): 60,"[6]; free, 60 minutes",0 (0)
same,residue as Cl2 (total) after time (minutes): 10,"[6]; total, 10 minutes",0 (0)
same,residue as Cl2 (total) after time (minutes): 20,"[6]; total, 20 minutes",0 (0)
same,residue as Cl2 (total) after time (minutes): 60,"[6]; total, 60 minutes",0 (0)
same,total count,total count [7],6 × 10^6 cfu/ml
same,Surviving MOs after time (hours): 4,[8]; 4 hours,4 × 10^3 cfu/ml
same,Surviving MOs after time (hours): 28,[8]; 28 hours,2 × 10^6 cfu/ml
same,Surviving MOs after time (hours): 48,[8]; 48 hours,3 × 10^6 cfu/ml
same,Surviving MOs after time (hours): 72,[8]; 72 hours,3 × 10^6 cfu/ml
same,Surviving MOs after time (minutes); total aerobic: 10,total aerobic MOs; 10 minutes,2 × 10^5 cfu/ml
same,Surviving MOs after time (minutes); total aerobic: 20,total aerobic MOs; 20 minutes,2 × 10^7 cfu/ml
same,Surviving MOs after time (minutes); total aerobic: 60,total aerobic MOs; 60 minutes,1 × 10^7 cfu/ml
same,Viable counts after time (minutes): 30,[9]; 30 minutes,6 × 10^3 cfu/ml
same,Viable counts after time (minutes): 70,[9]; 70 minutes,2 × 10^3 cfu/ml
same,Viable counts after time: 25 hours,[9]; 25 hours,1 × 10^5 cfu/ml
same,Survivors pH-7.0 60 m,"bacillus mycoides; pH 7.0, 60 m",1 × 10^5 cfu/ml
same,Survivors pH-7.0 180 m,"bacillus mycoides; pH 7.0, 180 m",1 × 10^5 cfu/ml
same,Survivors pH-7.0 24 h,"bacillus mycoides; pH 7.0, 24 h",1 × 10^5 cfu/ml
same,Survivors pH-8.0 60 m,"bacillus mycoides; pH 8.0, 60 m",3 × 10^5 cfu/ml
same,Survivors pH-8.0 180 m,"bacillus mycoides; pH 8.0, 180 m",1 × 10^5 cfu/ml
same,Survivors pH-8.0 24 h,"bacillus mycoides; pH 8.0, 24 h",1 × 10^5 cfu/ml
same,Survivors pH-9.0 60 m,"bacillus mycoides; pH 9.0, 60 m",1 × 10^5 cfu/ml
same,Survivors pH-9.0 180 m,"bacillus mycoides; pH 9.0, 180 m",1 × 10^5 cfu/ml
same,Survivors pH-9.0 24 h,"bacillus mycoides; pH 9.0, 24 h",1 × 10^5 cfu/ml
same,Survivors after time (minutes): 1,Pseudomonas sp. [10]; 1 minute,4 × 10^6 cfu/ml
same,Survivors after time (minutes): 5,Pseudomonas sp. [10]; 5 minutes,1 × 10^5 cfu/ml
same,Survivors after time (minutes): 10,Pseudomonas sp. [10]; 10 minutes,4 × 10^2 cfu/ml
same,Survivors after time (minutes): 20,Pseudomonas sp. [10]; 20 minutes,0 cfu/ml
same,Surviving MOs after time (minutes); (total anaerobic): 10,total anaerobic MOs; 10 minutes,8 × 10^4 cfu/ml
same,Surviving MOs after time (minutes); (total anaerobic): 20,total anaerobic MOs; 20 minutes,3 × 10^6 cfu/ml
same,Residue free as Cl2 after 10 minutes,[11]; free,0.2
same,Residue (total) as Cl2 after 10 minutes,[11]; total,1.5
same,Survivors total count after time (minutes): 10,total count [12]; 10 minutes,9 × 10^5 cfu/ml
same,Survivors total count after time (minutes): 180,total count [12]; 180 minutes,7 × 10^5 cfu/ml
same,Fecal coli,Fecal coli,5 × 10^5 cfu/ml
same,"Survivors (total count) H2O, 60 minutes",total count [13]; 60 minutes,2 × 10^6 cfu/ml
same,"Survivors (total count) H2O, 180 minutes",total count [13]; 180 minutes,2 × 10^6 cfu/ml
